Assay results published in patent US20150099800A1, “NOVEL LIPASE INHIBITORS, REPORTER SUBSTRATES AND USES THEREOF” (Northeastern University, priority 2012, published 2015).
Read-outs that look alike come from different tables or passages of the source.

Key:
hDAGLα [1] = target: T1, hDAGLα (Homo sapiens, UniProt Q9Y4D2)
T1 sequence (Q9Y4D2 1-1042): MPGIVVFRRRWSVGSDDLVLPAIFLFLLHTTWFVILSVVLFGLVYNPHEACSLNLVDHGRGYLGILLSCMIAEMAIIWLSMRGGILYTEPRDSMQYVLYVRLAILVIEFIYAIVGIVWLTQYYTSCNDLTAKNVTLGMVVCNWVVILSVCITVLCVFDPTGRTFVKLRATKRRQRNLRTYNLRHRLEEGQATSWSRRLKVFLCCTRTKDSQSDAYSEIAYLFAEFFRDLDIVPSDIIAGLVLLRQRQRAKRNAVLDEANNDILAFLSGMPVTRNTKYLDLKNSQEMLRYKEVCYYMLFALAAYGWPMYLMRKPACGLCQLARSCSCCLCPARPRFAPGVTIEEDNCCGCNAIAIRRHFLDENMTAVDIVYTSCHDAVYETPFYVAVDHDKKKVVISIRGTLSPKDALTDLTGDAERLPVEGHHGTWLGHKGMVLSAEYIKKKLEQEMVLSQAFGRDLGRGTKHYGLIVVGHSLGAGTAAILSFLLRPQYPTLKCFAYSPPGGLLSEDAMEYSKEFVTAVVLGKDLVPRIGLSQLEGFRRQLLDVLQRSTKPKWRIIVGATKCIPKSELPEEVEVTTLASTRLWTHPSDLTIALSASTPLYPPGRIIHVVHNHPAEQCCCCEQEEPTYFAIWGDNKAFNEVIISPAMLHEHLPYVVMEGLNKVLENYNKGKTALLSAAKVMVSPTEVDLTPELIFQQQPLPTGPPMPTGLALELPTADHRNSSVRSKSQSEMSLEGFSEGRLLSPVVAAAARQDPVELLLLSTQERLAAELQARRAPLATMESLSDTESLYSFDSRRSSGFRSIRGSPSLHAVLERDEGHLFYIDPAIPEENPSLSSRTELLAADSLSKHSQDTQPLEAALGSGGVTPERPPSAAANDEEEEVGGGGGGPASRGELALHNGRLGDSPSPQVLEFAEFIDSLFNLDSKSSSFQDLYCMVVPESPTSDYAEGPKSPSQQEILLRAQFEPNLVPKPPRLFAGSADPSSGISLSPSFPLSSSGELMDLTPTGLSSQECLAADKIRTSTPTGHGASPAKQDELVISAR

MAGL = target: T2, MAGL (Homo sapiens, UniProt Q99685); experiment: hMAGL coumarin substrate fluorescence assay; assay type: biochemical; set-up: The N-terminal his-tagged full length human monoacylglycerol lipase used; His (N); made in house; host or cells: E. coli
T2 sequence (Q99685 1-303): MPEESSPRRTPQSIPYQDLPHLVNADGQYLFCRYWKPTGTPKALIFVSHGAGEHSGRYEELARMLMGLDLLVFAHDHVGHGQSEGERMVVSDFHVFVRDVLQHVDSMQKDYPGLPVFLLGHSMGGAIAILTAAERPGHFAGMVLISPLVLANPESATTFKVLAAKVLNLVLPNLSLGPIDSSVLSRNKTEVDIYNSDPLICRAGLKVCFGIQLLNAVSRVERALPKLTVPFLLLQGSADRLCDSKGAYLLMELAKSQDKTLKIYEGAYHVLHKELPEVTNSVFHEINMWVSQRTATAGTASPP

[2] = target: T3, Pancreatic Lipase (Porcine) (Sus scrofa, UniProt P00591); assay type: biochemical
T3 construct: purchased Sigma L3126
T3 sequence (P00591 1-450): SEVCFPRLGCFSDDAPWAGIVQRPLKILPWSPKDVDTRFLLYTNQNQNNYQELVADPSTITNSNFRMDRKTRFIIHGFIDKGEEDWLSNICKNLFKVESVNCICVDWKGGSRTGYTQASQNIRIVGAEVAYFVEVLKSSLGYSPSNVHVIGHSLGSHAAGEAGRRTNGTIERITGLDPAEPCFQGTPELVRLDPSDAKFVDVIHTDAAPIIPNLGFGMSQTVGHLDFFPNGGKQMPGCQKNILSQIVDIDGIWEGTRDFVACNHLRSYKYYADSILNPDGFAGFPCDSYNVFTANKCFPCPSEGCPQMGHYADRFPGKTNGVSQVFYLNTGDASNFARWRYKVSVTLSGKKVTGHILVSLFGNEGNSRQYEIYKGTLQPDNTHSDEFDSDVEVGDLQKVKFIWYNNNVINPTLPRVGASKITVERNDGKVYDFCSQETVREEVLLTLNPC

[3] = test system: Lipoprotein Lipase (Bacterial); assay type: biochemical, Pseudomonas sp.
rFAAH = target: T4, rFAAH (Rattus norvegicus, UniProt P97612); experiment: rFAAH coumarin substrate fluorescence assay; assay type: biochemical
T4 construct: His (N); made in house; host or cells: E. coli (cell line provided by the Cravatt group)
T4 sequence (P97612 30-579 limits assumed): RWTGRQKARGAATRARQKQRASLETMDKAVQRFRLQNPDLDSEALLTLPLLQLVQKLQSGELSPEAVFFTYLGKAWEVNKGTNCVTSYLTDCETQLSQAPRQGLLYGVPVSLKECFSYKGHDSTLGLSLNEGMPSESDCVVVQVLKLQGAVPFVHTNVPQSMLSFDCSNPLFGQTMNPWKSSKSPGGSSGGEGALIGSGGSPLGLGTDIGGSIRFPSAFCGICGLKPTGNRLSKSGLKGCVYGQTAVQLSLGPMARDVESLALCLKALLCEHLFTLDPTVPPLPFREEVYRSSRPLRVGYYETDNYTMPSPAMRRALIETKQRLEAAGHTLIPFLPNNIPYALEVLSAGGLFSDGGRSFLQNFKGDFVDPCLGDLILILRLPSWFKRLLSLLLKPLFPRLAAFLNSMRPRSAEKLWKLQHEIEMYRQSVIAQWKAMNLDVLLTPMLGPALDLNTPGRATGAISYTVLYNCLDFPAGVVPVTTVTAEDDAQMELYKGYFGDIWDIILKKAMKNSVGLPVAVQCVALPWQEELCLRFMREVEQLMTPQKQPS

hDAGLα [4] = target: T1, hDAGLα; remark: listed apart in the source
[5] = 10 μM, 0.05% Triton X-100 present

Q: Which results are given for `CCCCCCCCCCC[C@@H](C[C@@H]1OC(=O)[C@H]1CCCCCC)OC(=O)[C@H](CC(C)C)NC=O` [Compound 3, tetrahydrolipstatin]?
A: inhibition of hDAGLα at 10 μM (hDAGLα [1]; 10 μM): complete inhibition; inhibition at 10 µM (MAGL; read-out: hMAGL inhibition at 10 μM (%)): 47%; inhibition of porcine triacylglycerol lipase, FRET ([2]; preliminary studies): potent inhibition; inhibition at 10 µM ([2]; read-out: Pancreatic Lipase (Porcine) inhibition at 10 μM (%)): 96%; inhibition of bacterial lipoprotein lipase, FRET ([3]; preliminary studies): potent inhibition; IC50 ([3]; reporter compound (17), read-out: apparent IC50 with lipoprotein lipase, FRET assay): ~100 nM; inhibition at 10 µM (rFAAH; read-out: rFAAH inhibition at 10 μM (%)): 6%

Q: Which results are given for `CCCCCCCCCCCC(CC1OC(=O)C1CCCCCC)OC(=O)C(NC=O)C(C)CC` (centres unmarked) [Compound 6]?
A: hDAGLα inhibition at 10 μM TLC (with Triton X-100) (%) (hDAGLα [1]; [5]): (78^A) %; hMAGL inhibition at 10 μM (%) (MAGL; 10 μM): 39%; Pancreatic Lipase (Porcine) inhibition at 10 μM (%) ([2]; 10 μM): 99%; Lipoprotein Lipase (Bacterial) inhibition at 10 μM (%) ([3]; 10 μM): 86%; rFAAH inhibition at 10 μM (%) (rFAAH; 10 μM): 28%; hDAGLα inhibition at 10 μM (0.05% Triton X-100) (%), FRET (hDAGLα [4]; 10 μM): 98%; hDAGLα inhibition at 10 μM detergent free (%), FRET (hDAGLα [4]; 10 μM, detergent free): 90%

Q: Which results are given for `CCCCCCCCCCC[C@@H](C[C@@H]1OC(=O)[C@H]1CCCCCC)OC(=O)[C@H](NC=O)[C@@H](C)CC` [Compound 7]?
A: hDAGLα inhibition at 10 μM TLC (with Triton X-100) (%) (hDAGLα [1]; [5]): (86^A) %; hMAGL inhibition at 10 μM (%) (MAGL; 10 μM): 42%; Pancreatic Lipase (Porcine) inhibition at 10 μM (%) ([2]; 10 μM): 95%; Lipoprotein Lipase (Bacterial) inhibition at 10 μM (%) ([3]; 10 μM): 68%; rFAAH inhibition at 10 μM (%) (rFAAH; 10 μM): 0%; hDAGLα inhibition at 10 μM (0.05% Triton X-100) (%), FRET (hDAGLα [4]; 10 μM): 98%; hDAGLα inhibition at 10 μM detergent free (%), FRET (hDAGLα [4]; 10 μM, detergent free): 90%

Q: Which “hDAGLα inhibition at 10 μM TLC (with Triton X-100) (%)” value (hDAGLα [1]) does the source give for `O=C(Oc1ccc([N+](=O)[O-])cc1)N1CCC(C(O)(c2ccc3c(c2)OCO3)c2ccc3c(c2)OCO3)CC1` [JZL184] here?
A: (37^B) %

Q: What about the “inhibition of hDAGLα in radio-TLC assays” value (hDAGLα [1]) of the same molecule?
A: poor inhibitors

Q: What about the “hMAGL inhibition at 10 μM (%)” value (MAGL) of the same molecule?
A: 100^F %

Q: What about the “Pancreatic Lipase (Porcine) inhibition at 10 μM (%)” value [2] of the same molecule?
A: 36%

Q: And the “Lipoprotein Lipase (Bacterial) inhibition at 10 μM (%)” value [3]?
A: 36%

Q: And the “rFAAH inhibition at 10 μM (%)” value (rFAAH)?
A: 97^E %

Q: And the “hDAGLα inhibition at 10 μM detergent free (%), FRET” value (hDAGLα [4])?
A: 59, 44° %

Q: And the “hDAGLα inhibition at 10 μM detergent free (%), FRET, marker °” value (hDAGLα [4])?
A: 59, 44° %
